Assay results reported in patent US9969726B2, “Metabotropic glutamate receptor negative allosteric modulators (NAMS) and uses thereof” (Sanford-Burnham Medical Research Institute, priority 2014, dated 2018).
Where two headings read alike, the source gives them in different places.

Experiments:
rat mGlu2 receptor = rat mGlu2 receptor (Rattus norvegicus (Rat), UniProt P31421); test: mGlu2 in vitro GIRK thallium flux assay; type: cell-based; conditions: NAM, EC80 glutamate, HEK-293 GIRK cells
Outline: (§1)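 Cells expressing rat mGlu2 or mGlu3 with GIRK, plated overnight at 37 °C. Test compounds (0.3% DMSO, 10-point 1:3 series) preincubated 2.5 or 60 min, then thallium buffer plus EC80 glutamate added. Fluorescence slope 5–15 s after addition, normalised to vehicle and maximal agonist, fitted by four-parameter logistic.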

rat mGlu3 receptor = rat mGlu3 receptor (Rattus norvegicus (Rat), UniProt P31422); test: mGlu3 in vitro GIRK thallium flux assay; type: cell-based; conditions: NAM; 2.5 min compound incubation; EC80 glutamate; HEK-293 GIRK cells
Outline: as §1

[1] = 2.5 min compound incubation, read-out: mGlu2 EC50 (μM) (2.5 min)
[2] = read-out: mGlu2 EC50 (μM) (60 min), 60 min compound incubation

Sequence of rat mGlu2 receptor (P31421 19-872): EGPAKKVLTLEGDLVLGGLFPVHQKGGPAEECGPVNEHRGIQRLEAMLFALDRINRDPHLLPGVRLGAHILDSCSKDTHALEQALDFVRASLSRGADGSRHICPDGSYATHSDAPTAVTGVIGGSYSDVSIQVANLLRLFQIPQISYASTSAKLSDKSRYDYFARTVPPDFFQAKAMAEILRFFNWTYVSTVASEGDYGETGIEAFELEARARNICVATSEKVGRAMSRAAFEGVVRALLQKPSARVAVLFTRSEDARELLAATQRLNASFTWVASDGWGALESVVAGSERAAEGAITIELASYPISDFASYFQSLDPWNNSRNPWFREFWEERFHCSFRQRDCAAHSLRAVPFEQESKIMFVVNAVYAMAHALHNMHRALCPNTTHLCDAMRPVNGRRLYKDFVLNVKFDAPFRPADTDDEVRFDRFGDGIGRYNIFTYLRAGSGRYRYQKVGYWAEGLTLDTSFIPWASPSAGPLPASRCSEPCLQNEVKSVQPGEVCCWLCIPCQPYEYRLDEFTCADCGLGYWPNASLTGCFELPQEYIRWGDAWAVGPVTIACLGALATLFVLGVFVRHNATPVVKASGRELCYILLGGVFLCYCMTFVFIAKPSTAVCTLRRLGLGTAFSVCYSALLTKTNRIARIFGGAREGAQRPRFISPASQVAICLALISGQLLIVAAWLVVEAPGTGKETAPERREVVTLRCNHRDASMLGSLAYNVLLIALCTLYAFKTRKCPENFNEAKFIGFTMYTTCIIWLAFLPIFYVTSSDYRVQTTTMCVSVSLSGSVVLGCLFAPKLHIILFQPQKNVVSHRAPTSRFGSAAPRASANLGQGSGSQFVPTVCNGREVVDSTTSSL
Sequence of rat mGlu3 receptor (P31422 23-879): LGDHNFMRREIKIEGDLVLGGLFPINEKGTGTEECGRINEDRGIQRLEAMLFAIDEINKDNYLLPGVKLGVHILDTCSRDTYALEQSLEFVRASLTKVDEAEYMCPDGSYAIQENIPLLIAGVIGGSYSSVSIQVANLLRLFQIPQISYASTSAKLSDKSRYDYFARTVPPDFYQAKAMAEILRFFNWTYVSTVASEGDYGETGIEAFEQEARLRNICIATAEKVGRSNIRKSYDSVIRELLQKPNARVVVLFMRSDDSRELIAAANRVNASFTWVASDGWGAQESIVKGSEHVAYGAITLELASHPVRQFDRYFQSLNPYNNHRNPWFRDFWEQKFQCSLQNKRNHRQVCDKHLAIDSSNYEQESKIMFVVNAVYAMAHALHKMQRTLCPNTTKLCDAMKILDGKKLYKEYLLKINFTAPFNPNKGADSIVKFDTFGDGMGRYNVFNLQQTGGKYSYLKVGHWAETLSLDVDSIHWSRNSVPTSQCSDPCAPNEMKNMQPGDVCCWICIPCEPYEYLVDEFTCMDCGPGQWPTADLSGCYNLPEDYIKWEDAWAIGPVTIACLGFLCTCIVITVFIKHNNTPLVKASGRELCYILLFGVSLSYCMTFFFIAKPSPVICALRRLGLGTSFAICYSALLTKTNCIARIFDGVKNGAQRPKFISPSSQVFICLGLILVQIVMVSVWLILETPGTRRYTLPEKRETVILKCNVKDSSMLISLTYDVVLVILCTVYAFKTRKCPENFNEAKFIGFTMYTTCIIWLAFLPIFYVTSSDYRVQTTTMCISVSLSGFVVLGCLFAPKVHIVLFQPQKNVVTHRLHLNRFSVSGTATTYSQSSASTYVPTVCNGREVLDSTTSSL

| SMILES | EC50 (rat mGlu2 receptor; [1]) [µM] | EC50 (rat mGlu2 receptor; [2]) [µM] | EC50 (rat mGlu3 receptor) [µM] |
| --- | --- | --- | --- |
| O=C(O)c1ccc(-c2cccc(-c3nc(-c4ccc(C(F)(F)F)nc4)cc(C(F)(F)F)n3)c2)cc1 [Example 71, 3′-(4-(Trifluoromethyl)-6-(6-(trifluoromethyl)pyridin-3-yl)pyrimidin-2-yl)biphenyl-4-carboxylic Acid] | > 10 | > 10 | > 10 |
| O=C(O)c1ccccc1-c1cccc(-c2nc(-c3ccc(C(F)(F)F)nc3)cc(C(F)(F)F)n2)c1 [Example 72, 3′-(4-(Trifluoromethyl)-6-(6-(trifluoromethyl)pyridin-3-yl)pyrimidin-2-yl)biphenyl-2-carboxylic Acid] | > 10 | > 10 | > 10 |
| O=C(O)c1ccc(-c2cccc(-c3nc(-c4ccc(C(F)(F)F)nc4)cc(C(F)(F)F)n3)c2)cc1Cl [Example 74, 3-Chloro-3′-(4-(trifluoromethyl)-6-(6-(trifluoromethyl)pyridin-3-yl)pyrimidin-2-yl)biphenyl-4-carboxylic Acid] | 6.76 | > 10 | 6.52 |
| O=C(O)c1cc(-c2cccc(-c3nc(-c4ccc(C(F)(F)F)nc4)cc(C(F)(F)F)n3)c2)cc([N+](=O)[O-])c1 [Example 75, 5-Nitro-3′-(4-(trifluoromethyl)-6-(6-(trifluoromethyl)pyridin-3-yl)pyrimidin-2-yl)biphenyl-3-carboxylic Acid] | 1.27 | 0.5 | > 10 |
| COc1ccc(C(=O)O)cc1-c1cccc(-c2nc(-c3ccc(C(F)(F)F)nc3)cc(C(F)(F)F)n2)c1 [Example 77, 6-Methoxy-3′-(4-(trifluoromethyl)-6-(6-(trifluoromethyl)pyridin-3-yl)pyrimidin-2-yl)biphenyl-3-carboxylic Acid] | 0.96 | 0.29 | 1.59 |
| O=C(O)c1ccc(-c2cccc(-c3nc(-c4ccc(C(F)(F)F)nc4)cc(C(F)(F)F)n3)c2)c(Cl)c1 [Example 78, 2-Chloro-3′-(4-(trifluoromethyl)-6-(6-(trifluoromethyl)pyridin-3-yl)pyrimidin-2-yl)biphenyl-4-carboxylic Acid] | 3.49 | 1.18 | 6.32 |
| O=C(O)c1ccc(-c2cccc(-c3nc(-c4ccc(C(F)(F)F)nc4)cc(C(F)(F)F)n3)c2)s1 [Example 80, 5-(3-(4-(Trifluoromethyl)-6-(6-(trifluoromethyl)pyridin-3-yl)pyrimidin-2-yl)phenyl)thiophene-2-carboxylic Acid] | 0.78 | 0.13 | 2.4 |
| O=C(O)c1ccc(-c2ccc(-c3nc(-c4ccc(C(F)(F)F)nc4)cc(C(F)(F)F)n3)cc2)cc1 [Example 81, 4′-(4-(Trifluoromethyl)-6-(6-(trifluoromethyl)pyridin-3-yl)pyrimidin-2-yl)biphenyl-4-carboxylic Acid] | 3.78 | 0.44 | 2.13 |
| O=C(O)c1cc(-c2ccc(-c3nc(-c4ccc(C(F)(F)F)nc4)cc(C(F)(F)F)n3)cc2)ccc1F [Example 82, 4-Fluoro-4′-(4-(trifluoromethyl)-6-(6-(trifluoromethyl)pyridin-3-yl)pyrimidin-2-yl)biphenyl-3-carboxylic Acid] | 1.42 | 0.49 | 1.32 |
| O=C(O)c1cc(-c2ccc(-c3nc(-c4ccc(C(F)(F)F)nc4)cc(C(F)(F)F)n3)cc2)ccc1Cl [Example 83, 4-Chloro-4′-(4-(trifluoromethyl)-6-(6-(trifluoromethyl)pyridin-3-yl)pyrimidin-2-yl)biphenyl-3-carboxylic Acid] | 2.95 | 1.23 | > 10 |
| O=C(O)c1cc(F)cc(-c2ccc(-c3nc(-c4ccc(C(F)(F)F)nc4)cc(C(F)(F)F)n3)cc2)c1 [Example 84, 5-Fluoro-4′-(4-(trifluoromethyl)-6-(6-(trifluoromethyl)pyridin-3-yl)pyrimidin-2-yl)biphenyl-3-carboxylic Acid] | 2.79 |  | 4.91 |
| CNC(=O)c1cc(-c2cccc(-c3nc(-c4ccc(C(F)(F)F)nc4)cc(C(F)(F)F)n3)c2)ccc1Cl [Example 85, 4-Chloro-N-methyl-3′-(4-(trifluoromethyl)-6-(6-(trifluoromethyl)pyridin-3-yl)pyrimidin-2-yl)biphenyl-3-carboxamide] | > 30 | > 10 | > 30 |
| O=C(O)c1cc(-c2cccc(-c3nc(-c4cccs4)cc(C(F)(F)F)n3)c2)ccc1F [Example 87A, 4-Fluoro-3′-(4-(thiophen-2-yl)-6-(trifluoromethyl)pyrimidin-2-yl)biphenyl-3-carboxylic Acid] | 1.12 | 0.24 | 1.26 |
| O=C(O)c1cc(-c2cccc(-c3nc(-c4ccco4)cc(C(F)(F)F)n3)c2)ccc1F [Example 88, 4-Fluoro-3′-(4-(furan-2-yl)-6-(trifluoromethyl)pyrimidin-2-yl)biphenyl-3-carboxylic Acid] | 0.68 | 0.34 | 1.13 |
| COc1ccc(-c2cccc(-c3nc(-c4ccco4)cc(C(F)(F)F)n3)c2)cc1C(=O)O [Example 90, 3′-(4-(Furan-2-yl)-6-(trifluoromethyl)pyrimidin-2-yl)-4-methoxybiphenyl-3-carboxylic Acid] | 3.68 | 2.49 | > 10 |
| Cc1ccccc1-c1cc(C(F)(F)F)nc(-c2cccc(-c3ccc(F)c(C(=O)O)c3)c2)n1 [Example 91, 4-Fluoro-3′-(4-o-tolyl-6-(trifluoromethyl)pyrimidin-2-yl)biphenyl-3-carboxylic acid] | 1.52 | 0.28 | > 10 |
| Cc1cccc(-c2cc(C(F)(F)F)nc(-c3cccc(-c4ccc(F)c(C(=O)O)c4)c3)n2)c1 [Example 92, 4-Fluoro-3′-(4-m-tolyl-6-(trifluoromethyl)pyrimidin-2-yl)biphenyl-3-carboxylic Acid] | 2.79 | 0.4 | 3.37 |
| Cc1cc(C)cc(-c2cc(C(F)(F)F)nc(-c3cccc(-c4ccc(F)c(C(=O)O)c4)c3)n2)c1 [Example 93, 3′-(4-(3,5-Dimethylphenyl)-6-(trifluoromethyl)pyrimidin-2-yl)-4-fluorobiphenyl-3-carboxylic Acid] | > 10 | 1.6 | > 10 |
| O=C(O)c1cc(-c2cccc(-c3nc(/C=C/c4ccccc4)cc(C(F)(F)F)n3)c2)ccc1F [Example 95, (E)-4-Fluoro-3′-(4-styryl-6-(trifluoromethyl)pyrimidin-2-yl)biphenyl-3-carboxylic Acid] | > 10 |  | > 10 |
| CC(C)(C)c1ccc(-c2cc(C(F)(F)F)nc(-c3cccc(-c4ccc(F)c(C(=O)O)c4)c3)n2)cc1 [Example 96, 3′-(4-(4-tert-Butylphenyl)-6-(trifluoromethyl)pyrimidin-2-yl)-4-fluorobiphenyl-3-carboxylic Acid] | 5.38 | 1.08 | 6.11 |
| O=C(O)c1cc(-c2cccc(-c3nc(-c4cccnc4F)cc(C(F)(F)F)n3)c2)ccc1F [Example 97, 4-Fluoro-3′-(4-(2-fluoropyridin-3-yl)-6-(trifluoromethyl)pyrimidin-2-yl)biphenyl-3-carboxylic Acid] | 1.07 | 0.36 | 2.21 |
| O=C(O)c1cc(-c2cccc(-c3nc(-c4ccc(Cl)cc4)cc(C(F)(F)F)n3)c2)ccc1F [Example 98, 3′-(4-(4-Chlorophenyl)-6-(trifluoromethyl)pyrimidin-2-yl)-4-fluorobiphenyl-3-carboxylic Acid] | 2.87 | 0.35 | 2.47 |
| COc1ccc(-c2cc(C(F)(F)F)nc(-c3cccc(-c4ccc(F)c(C(=O)O)c4)c3)n2)cc1OC [Example 99, 3′-(4-(3,4-Dimethoxyphenyl)-6-(trifluoromethyl)pyrimidin-2-yl)-4-fluorobiphenyl-3-carboxylic Acid] | > 10 | 1.3 | 2.83 |
| O=C(O)c1cc(-c2cccc(-c3nc(-c4ccccc4F)cc(C(F)(F)F)n3)c2)ccc1F [Example 100, 4-Fluoro-3′-(4-(2-fluorophenyl)-6-(trifluoromethyl)pyrimidin-2-yl)biphenyl-3-carboxylic Acid] | 1.21 | 0.16 | 2.21 |
| O=C(O)c1cc(-c2cccc(-c3nc(-c4cc5ccccc5o4)cc(C(F)(F)F)n3)c2)ccc1F [Example 101, 3′-(4-(Benzofuran-2-yl)-6-(trifluoromethyl)pyrimidin-2-yl)-4-fluorobiphenyl-3-carboxylic Acid] | > 10 | 0.95 | > 10 |
| O=C(O)c1cc(-c2cccc(-c3nc(-c4cc5ccccc5s4)cc(C(F)(F)F)n3)c2)ccc1F [Example 102, 3′-(4-(Benzo[b]thiophen-2-yl)-6-(trifluoromethyl)pyrimidin-2-yl)-4-fluorobiphenyl-3-carboxylic Acid] | 3.33 | 0.88 | 3.12 |
| CSc1ccc(-c2cc(C(F)(F)F)nc(-c3cccc(-c4ccc(F)c(C(=O)O)c4)c3)n2)cc1 [Example 103, 4-Fluoro-3′-(4-(4-(methylthio)phenyl)-6-(trifluoromethyl)pyrimidin-2-yl)biphenyl-3-carboxylic Acid] | 4.69 | 0.99 | 4.54 |
| O=C(O)c1cc(F)cc(-c2cccc(-c3nc(-c4ccccc4)cc(C(F)(F)F)n3)c2)c1 [Example 104, 5-Fluoro-3′-(4-phenyl-6-(trifluoromethyl)pyrimidin-2-yl)biphenyl-3-carboxylic Acid] | 1.44 | 0.24 | 1.9 |
